Reference: patent US4517196A, “Tricyclic thiazolyloxamic acids and their derivatives, their preparation, and therapeutic agents containing these compounds” (BASF Aktiengesellschaft, priority 1981, dated 1985)

Test system: passive cutaneous anaphylaxis
Experiment: antiallergic action, passive cutaneous anaphylaxis (PCA) in rats, oral
Type: in vivo, rat
Details: for ED50: Rattus norvegicus, read-out: Inhibition of PCA, ED 50%; for Inhibition of PCA, relative effectiveness: relative to comparative compound V1 (1.00); for times more effective than the comparative compound V1: administered orally
Method: The antiallergic action was tested against passive cutaneous anaphylaxis in rats.
Narcotized male rats (weighing from 100 to 140 g) are sensitized by administration of an intradermal injection (shaved skin) of 0.1 ml of an ovalbumin antiserum. After a sensitization period of about 48 hours, treatment is carried out by administering various dosages (10 animals/dose) of the test substances intraperitoneally or orally. 15 and 20 minutes after treatment, an anitgen/Evans blue mixture (10 mg/kg of ovalbumin in 2% strength Evans blue solution) is injected intravenously into the experimental animals. 30 minutes later, the animals are killed, and the back skin is peeled off and the diameter of the circular blue area on the inner surface is measured. The size of the colored spot in untreated control animals may be standardized. Antiallergic substances reduce the diameter of the colored spots, their reduction being dependent on the dose. The ED 50% is the dose which produces a 50% reduction in the diameter of the colored spot in comparison with control animals which have not been treated with the drug.

[1] = oral administration, rats, dose giving 50% reduction in diameter of colored spot vs untreated controls

Compound | ED50 [1] [mg/kg] | Inhibition of PCA, relative effectiveness (oral administration, rats) | Inhibition of PCA, ED 50% [1] [mg/kg] | times more effective than the comparative compound V1 [times] | oral effectiveness in doses up to 100 mg/kg (oral, doses up to 100 mg/kg, commercial preparation Intal)
CCOC(=O)C(=O)Nc1nc2c(s1)Cc1ccccc1-2 [Example 1, Ethyl N-(indeno[1,2-d]thiazol-2-yl)-oxamate] | 1.48 | 5.81 |  |  | 
O=C(O)C(=O)Nc1nc2ccccc2s1 [Example V1, N-benzothiazol-2-yl oxamate, reference compound] |  | 1.00 | > 8.60 |  | 
O=C(O)C(=O)Nc1nc2c(s1)Cc1ccccc1-2 [Example 4, N-(Indeno[1,2-d]thiazol-2-yl)-oxamic acid] | 1.3 | 6.61 |  | 6.6 | 
O=C(O)c1cc(=O)c2c(OCC(O)COc3cccc4oc(C(=O)O)cc(=O)c34)cccc2o1 [cromolyn, reference compound] | 100 |  |  |  | orally ineffective
CCOC(=O)C(=O)Nc1nc2c(s1)C(=O)c1ccccc1-2 [Example 2, Ethyl N-(8-oxoindeno[1,2-d]thiazol-2-yl)-oxamate] | 1.95 | 4.41 |  | 4.4 | 
